Results as given in ChEMBL document CHEMBL1128553, “Synthesis of 1,4,7,8,9,10-hexahydro-9-methyl-6-nitropyrido[3,4-f]- quinoxaline-2,3-dione and related quinoxalinediones: characterization of alpha-amino-3-hydroxy-5-methyl-4-isoxazolepropionic acid (and N-methyl-D-aspartate) receptor and anticonvulsant activity” (J Med Chem, 1995).

Columns and labels:
[1] = target: T1, Glutamate receptor ionotropic, AMPA (Rattus norvegicus, UniProt P19490+P19491+P19492+P19493)
Description: (§1) Binding affinity was determined against ionotropic glutamate receptor AMPA in rat brain synaptic membranes using [3H]AMPA as radioligand

[2] = target: Glutamate receptor ionotropic, kainate; experiment: Binding affinity for the ionotropic glutamate receptor kainate in rat brain synaptic membranes using [3H]kainate as radioligand; type: cell membranes
[3] = target: Glutamate receptor ionotropic, kainate; experiment: Antagonistic activity against Ionotropic glutamate receptor kainate induced LDH release in cultured cortical neurons in rat after 24 hr application of 500 uM of kainate; type: functional
[4] = target: Glutamate receptor ionotropic, NMDA 1 (Rattus norvegicus, UniProt P35439); experiment: Affinity for N-methyl-D-aspartate glutamate receptor 1 in rat brain synaptic membranes, using [3H]glycine as radioligand; type: cell membranes
Rattus norvegicus [5] = organism: Rattus norvegicus; experiment: Concentration of compound that inhibits by 50% LDH released by 24 hr application of 500 uM kainate; type: functional, organism-based
Rattus norvegicus [6] = organism: Rattus norvegicus; experiment: Concentration of compound that inhibits by 50% depolarizations induced by 10 uM AMPA; type: functional
Rattus norvegicus [7] = organism: Rattus norvegicus; experiment: Concentration of compound that inhibits by 50% LDH released by 24 hr application of 100 uM AMPA; type: functional, organism-based
[8] = target: T1, Glutamate receptor ionotropic, AMPA; remark: listed apart in the source
Description: Inhibition of Ionotropic glutamate receptor AMPA induced depolarization in rat cortical wedge by application of 10 uM of AMPA

[9] = target: T1, Glutamate receptor ionotropic, AMPA; remark: listed apart in the source
Description: Antagonistic activity against Ionotropic glutamate receptor AMPA induced LDH release in cultured rat cortical neurons after 24 hr 100 uM AMPA

[10] = target: Glutamate receptor ionotropic, AMPA (Rattus norvegicus, UniProt P19491+P19492+P19493+P19490)
Chain of Glutamate receptor ionotropic, AMPA (Rattus norvegicus, UniProt P19491+P19492+P19493+P19490) (P19491 whole entry): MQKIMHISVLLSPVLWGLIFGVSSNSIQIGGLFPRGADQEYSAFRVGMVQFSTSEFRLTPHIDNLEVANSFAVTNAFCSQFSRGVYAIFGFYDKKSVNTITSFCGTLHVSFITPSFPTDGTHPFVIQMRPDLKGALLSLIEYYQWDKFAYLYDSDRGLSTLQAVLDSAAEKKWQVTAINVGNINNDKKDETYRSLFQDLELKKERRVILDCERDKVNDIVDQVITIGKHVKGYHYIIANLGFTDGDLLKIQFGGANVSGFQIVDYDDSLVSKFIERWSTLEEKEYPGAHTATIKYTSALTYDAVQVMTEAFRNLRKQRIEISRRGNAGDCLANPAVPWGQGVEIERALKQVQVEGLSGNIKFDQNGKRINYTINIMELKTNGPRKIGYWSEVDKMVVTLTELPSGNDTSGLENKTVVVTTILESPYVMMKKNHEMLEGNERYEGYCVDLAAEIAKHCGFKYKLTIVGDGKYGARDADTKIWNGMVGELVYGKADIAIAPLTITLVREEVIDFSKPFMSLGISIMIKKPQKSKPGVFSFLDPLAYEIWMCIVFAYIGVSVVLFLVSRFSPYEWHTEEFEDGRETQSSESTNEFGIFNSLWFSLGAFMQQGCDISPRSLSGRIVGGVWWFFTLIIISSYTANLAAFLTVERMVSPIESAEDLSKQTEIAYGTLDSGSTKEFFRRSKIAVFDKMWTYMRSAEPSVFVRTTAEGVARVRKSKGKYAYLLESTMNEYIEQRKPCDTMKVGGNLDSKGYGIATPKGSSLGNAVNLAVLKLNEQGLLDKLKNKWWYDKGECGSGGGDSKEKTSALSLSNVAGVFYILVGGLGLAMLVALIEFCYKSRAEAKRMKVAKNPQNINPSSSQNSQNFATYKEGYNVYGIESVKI
Chain of Glutamate receptor ionotropic, AMPA (Rattus norvegicus, UniProt P19491+P19492+P19493+P19490) (P19492 whole entry): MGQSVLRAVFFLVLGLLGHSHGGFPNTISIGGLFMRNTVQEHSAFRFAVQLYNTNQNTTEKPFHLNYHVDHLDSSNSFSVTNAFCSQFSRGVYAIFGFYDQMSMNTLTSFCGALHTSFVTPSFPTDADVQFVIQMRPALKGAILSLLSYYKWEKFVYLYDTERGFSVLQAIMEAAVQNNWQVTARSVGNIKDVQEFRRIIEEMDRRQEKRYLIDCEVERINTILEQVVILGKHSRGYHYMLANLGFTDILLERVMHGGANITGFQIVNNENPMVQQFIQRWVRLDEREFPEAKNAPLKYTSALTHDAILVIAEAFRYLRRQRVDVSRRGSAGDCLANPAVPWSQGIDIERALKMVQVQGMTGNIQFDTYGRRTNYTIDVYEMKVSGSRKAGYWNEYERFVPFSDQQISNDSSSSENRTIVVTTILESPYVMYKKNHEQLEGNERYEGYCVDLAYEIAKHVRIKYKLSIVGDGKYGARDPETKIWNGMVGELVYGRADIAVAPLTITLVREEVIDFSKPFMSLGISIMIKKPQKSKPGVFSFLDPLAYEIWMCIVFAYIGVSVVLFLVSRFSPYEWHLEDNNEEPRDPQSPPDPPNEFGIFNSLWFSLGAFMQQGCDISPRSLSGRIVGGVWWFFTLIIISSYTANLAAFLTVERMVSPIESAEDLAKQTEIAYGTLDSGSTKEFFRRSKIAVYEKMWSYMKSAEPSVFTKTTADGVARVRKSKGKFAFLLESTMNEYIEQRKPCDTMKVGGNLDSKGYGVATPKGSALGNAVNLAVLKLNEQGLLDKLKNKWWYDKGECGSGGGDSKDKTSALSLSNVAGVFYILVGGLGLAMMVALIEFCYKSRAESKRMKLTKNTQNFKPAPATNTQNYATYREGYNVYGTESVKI
Chain of Glutamate receptor ionotropic, AMPA (Rattus norvegicus, UniProt P19491+P19492+P19493+P19490) (P19493 whole entry): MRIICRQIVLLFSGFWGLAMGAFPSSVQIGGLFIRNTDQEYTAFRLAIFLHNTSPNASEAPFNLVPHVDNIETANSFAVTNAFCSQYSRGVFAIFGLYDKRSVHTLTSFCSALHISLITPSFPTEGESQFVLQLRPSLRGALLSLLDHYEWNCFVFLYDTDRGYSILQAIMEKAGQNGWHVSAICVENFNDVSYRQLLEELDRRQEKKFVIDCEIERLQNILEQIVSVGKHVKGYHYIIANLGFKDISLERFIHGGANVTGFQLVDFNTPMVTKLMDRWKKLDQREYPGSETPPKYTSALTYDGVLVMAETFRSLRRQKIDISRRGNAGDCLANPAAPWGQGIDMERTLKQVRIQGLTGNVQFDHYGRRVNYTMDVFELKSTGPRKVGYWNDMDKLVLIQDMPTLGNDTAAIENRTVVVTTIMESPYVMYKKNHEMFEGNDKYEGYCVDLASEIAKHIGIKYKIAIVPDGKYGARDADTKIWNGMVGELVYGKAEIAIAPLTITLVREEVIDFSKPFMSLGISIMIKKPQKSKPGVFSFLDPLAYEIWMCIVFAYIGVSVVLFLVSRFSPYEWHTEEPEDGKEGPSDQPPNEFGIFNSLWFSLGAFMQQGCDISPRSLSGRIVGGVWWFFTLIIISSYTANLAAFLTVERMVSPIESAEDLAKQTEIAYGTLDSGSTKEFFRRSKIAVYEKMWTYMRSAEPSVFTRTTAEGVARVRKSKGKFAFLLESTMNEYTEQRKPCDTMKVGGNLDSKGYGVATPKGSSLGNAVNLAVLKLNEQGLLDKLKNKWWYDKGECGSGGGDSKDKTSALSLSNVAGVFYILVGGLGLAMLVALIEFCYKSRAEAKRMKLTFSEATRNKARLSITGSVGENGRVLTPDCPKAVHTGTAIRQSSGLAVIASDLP
Chain of Glutamate receptor ionotropic, AMPA (Rattus norvegicus, UniProt P19491+P19492+P19493+P19490) (P19490 whole entry): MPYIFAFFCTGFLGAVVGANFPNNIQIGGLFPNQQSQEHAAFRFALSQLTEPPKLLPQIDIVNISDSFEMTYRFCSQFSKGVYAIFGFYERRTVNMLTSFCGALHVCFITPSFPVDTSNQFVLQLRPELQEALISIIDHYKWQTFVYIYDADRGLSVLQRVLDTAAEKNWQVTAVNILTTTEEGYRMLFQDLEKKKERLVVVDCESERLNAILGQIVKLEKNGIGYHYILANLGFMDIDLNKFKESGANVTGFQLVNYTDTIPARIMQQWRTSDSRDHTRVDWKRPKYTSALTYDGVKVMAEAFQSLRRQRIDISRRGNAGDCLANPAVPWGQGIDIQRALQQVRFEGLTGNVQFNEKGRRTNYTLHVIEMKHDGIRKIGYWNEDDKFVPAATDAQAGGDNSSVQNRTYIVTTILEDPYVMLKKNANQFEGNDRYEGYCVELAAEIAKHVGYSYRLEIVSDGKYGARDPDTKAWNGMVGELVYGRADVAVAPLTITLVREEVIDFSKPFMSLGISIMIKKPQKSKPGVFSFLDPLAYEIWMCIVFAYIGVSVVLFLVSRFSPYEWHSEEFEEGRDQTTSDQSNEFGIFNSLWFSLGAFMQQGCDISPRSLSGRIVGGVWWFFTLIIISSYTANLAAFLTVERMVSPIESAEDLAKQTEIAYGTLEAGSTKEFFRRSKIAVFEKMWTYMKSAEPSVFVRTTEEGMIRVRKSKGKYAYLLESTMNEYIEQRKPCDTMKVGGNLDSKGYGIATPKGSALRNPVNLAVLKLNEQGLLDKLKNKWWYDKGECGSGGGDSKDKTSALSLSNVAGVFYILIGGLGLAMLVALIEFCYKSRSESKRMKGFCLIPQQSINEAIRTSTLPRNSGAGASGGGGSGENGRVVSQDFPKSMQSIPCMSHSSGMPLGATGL
Description: as §1

Row | SMILES | IC50 [1] | IC50 [2] | IC50 [3] | IC50 [4] | IC50 (Rattus norvegicus [5]) | IC50 (Rattus norvegicus [6]) | IC50 (Rattus norvegicus [7]) | IC50 [8] | IC50 [9] | IC50 [10]
1 | COC(=O)CC1c2ccc(Cl)cc2NC(=O)C1[N+](=O)[O-] (configuration not stated) | 139 µM | – | – | – | – | – | – | – | – | –
2 | CCC(C)CN1CCc2c(Br)cc3nc(O)c(O)nc3c2C1 (configuration not stated) | > 100 µM | 2.9 µM | > 30 µM | > 100 µM | > 30 µM | > 30 µM | > 30 µM | > 30 µM | > 30 µM | –
3 | CCC(C)CN1CCc2c(ccc3nc(O)c(O)nc23)C1 (configuration not stated) | > 100 µM | 48 µM | – | > 100 µM | – | – | – | – | – | –
4 | Cc1cc2[nH]c(=O)c(=O)[nH]c2c2c1CN(C)CC2 | 17.6 µM | 6.7 µM | – | > 10 µM | – | – | – | – | – | –
5 | CCC(C)N1CCc2ccc3nc(O)c(O)nc3c2C1 (configuration not stated) | > 100 µM | 21 µM | – | – | – | – | – | – | – | –
6 | COC(=O)c1cc2nc(O)c(O)nc2c2c1CN(C)CC2 | 44 µM | 22 µM | – | – | – | – | – | – | – | –
7 | CN1CCc2ccc3[nH]c(=O)c(=O)[nH]c3c2C1 | 18 µM | 71.2 µM | – | > 100 µM | – | – | – | – | – | –
8 | CN1CCCc2c1ccc1nc(O)c(O)nc21 | 24 µM | – | – | – | – | – | – | – | – | –
9 | CCCCCCCN1CCc2c(ccc3[nH]c(=O)c(=O)[nH]c23)C1 | > 100 µM | 45 µM | – | > 100 µM | – | – | – | – | – | –
10 | CCCN1CCc2c(ccc3[nH]c(=O)c(=O)[nH]c23)C1 | 18 µM | 23 µM | – | – | – | – | – | – | – | –
11 | CCOC(=O)c1nc2cc(Br)c3c(c2nc1O)CCN(C)C3 | > 100 µM | – | – | – | – | – | – | – | – | –
12 | Oc1nc2ccc3c(c2nc1O)CCNC3 | 12 µM | 17 µM | – | – | – | – | – | – | – | –
13 | CN1CCc2c(c(S(=O)(=O)c3ccccc3)cc3nc(O)c(O)nc23)C1 | 96 µM | 72 µM | – | – | – | – | – | – | – | –
14 | CC(C)CCN1CCc2ccc3nc(O)c(O)nc3c2C1 | 123 µM | 25 µM | – | – | – | – | – | – | – | –
15 | CN1CCc2c(c(C(=O)O)cc3nc(O)c(O)nc23)C1 | 56 µM | 36 µM | – | – | – | – | – | – | – | –
16 | CN1CCc2c([N+](=O)[O-])cc3[nH]c(=O)c(=O)[nH]c3c2C1 | 0.063 µM | 0.368 µM | 4 µM | 0.37 µM | 4 µM | 0.5 µM | 2.5 µM | 0.5 µM | 2.5 µM | 0.063 µM
17 | CCc1cnc2c(O)nc3cc([N+](=O)[O-])c(-n4ccnc4)cc3n12 | 0.02 µM | – | – | – | – | – | – | – | – | –
18 | CCOC(=O)C(=O)N1CCCc2c1ccc1[nH]c(=O)c(=O)[nH]c21 | 13 µM | 20 µM | – | 50 µM | – | – | – | – | – | –
19 | CN1Cc2c(S(=O)(=O)N(C)C)cc3c(N=O)c(O)[nH]c3c2C1 | 0.6 µM | – | – | – | – | – | – | – | – | –
20 | CCN1CCc2ccc3[nH]c(=O)c(=O)[nH]c3c2C1 | 41 µM | 20 µM | – | – | – | – | – | – | – | –
21 | CN1CCc2c(N)cc3[nH]c(=O)c(=O)[nH]c3c2C1 | 100 µM | 28 µM | – | > 100 µM | – | – | – | – | – | –
22 | CCN1CCc2c(ccc3nc(O)c(O)nc23)C1 | 21 µM | 37 µM | – | – | – | – | – | – | – | –
23 | CN1CCc2c(c([N+](=O)[O-])cc3[nH]c(=O)c(=O)[nH]c23)C1 | 0.29 µM | 0.38 µM | 9 µM | 4.9 µM | 9 µM | 1.8 µM | 18 µM | 1.8 µM | 18 µM | –
24 | CC(=O)Nc1cc2[nH]c(=O)c(=O)[nH]c2c2c1CCN(C)C2 | > 100 µM | > 100 µM | – | > 100 µM | – | – | – | – | – | –
25 | Oc1nc2ccc3c(c2nc1O)CCCN3 | 24 µM | 8.9 µM | – | – | – | – | – | – | – | –
26 | CCC(C)CN1CCc2ccc3nc(O)c(O)nc3c2C1 (configuration not stated) | > 100 µM | – | – | – | – | – | – | – | – | –

Further molecules by falling IC50 [1], results first:

Row | IC50 [1] | IC50 [2] | IC50 [3] | IC50 [4] | IC50 (Rattus norvegicus [5]) | IC50 (Rattus norvegicus [6]) | IC50 (Rattus norvegicus [7]) | IC50 [8] | IC50 [9] | SMILES | IC50 [10]
27 | 9.7 µM | 0.68 µM | > 30 µM | > 10 µM | > 30 µM | 16.5 µM | > 30 µM | 16.5 µM | > 30 µM | CC(C)CCN1CCc2c(Br)cc3nc(O)c(O)nc3c2C1 | –
28 | 9 µM | – | – | – | – | – | – | – | – | O=c1[nH]c2cc(Br)c3c(c2[nH]c1=O)CCCN3 | –
29 | 6.5 µM | 29.2 µM | – | > 100 µM | – | – | – | – | – | CN1CCc2c(ccc3[nH]c(=O)c(=O)[nH]c23)C1 | –
30 | 5.8 µM | 79 µM | – | > 10 µM | – | – | – | – | – | CCCCCCCN1CCc2c(c([N+](=O)[O-])cc3[nH]c(=O)c(=O)[nH]c23)C1 | –
31 | 4.3 µM | – | – | – | – | – | – | – | – | O=C(NS(=O)(=O)c1ccccc1)c1nc2cc(Cl)c(Cl)cc2[nH]c1=O | –
32 | 3.5 µM | 1.5 µM | – | 1 µM | – | – | – | – | – | O=c1[nH]c2cc(Br)c3c(c2[nH]c1=O)CNCC3 | –
33 | 2.84 µM | 2.83 µM | – | 4 µM | – | – | – | – | – | CN1CCc2c(Br)cc3[nH]c(=O)c(=O)[nH]c3c2C1 | –
34 | 2.8 µM | 1.7 µM | – | 20 µM | – | – | – | – | – | CCCN1CCc2c(c([N+](=O)[O-])cc3[nH]c(=O)c(=O)[nH]c23)C1 | –
35 | 2.5 µM | 0.43 µM | – | > 10 µM | – | – | – | – | – | CCC(C)N1CCc2c(Br)cc3nc(O)c(O)nc3c2C1 (configuration not stated) | –
36 | 2.2 µM | 11 µM | – | 1.3 µM | – | – | – | – | – | O=c1[nH]c2ccc3c(c2[nH]c1=O)NCCC3 | –
37 | 1.9 µM | 5.7 µM | – | > 10 µM | – | – | – | – | – | CN1CCc2c(c(Br)c([N+](=O)[O-])c3[nH]c(=O)c(=O)[nH]c23)C1 | –
38 | 1.86 µM | 1.76 µM | – | 4.3 µM | – | – | – | – | – | CN1CCc2c(c(Br)cc3[nH]c(=O)c(=O)[nH]c23)C1 | –
39 | 1.36 µM | 2.4 µM | – | 1.4 µM | – | – | – | – | – | CN1CCc2c(C#N)cc3[nH]c(=O)c(=O)[nH]c3c2C1 | –
40 | 1.3 µM | 14 µM | – | 267 µM | – | – | – | – | – | CCN1CCc2c(c(Br)cc3[nH]c(=O)c(=O)[nH]c23)C1 | –
41 | 1.3 µM | 15 µM | – | > 100 µM | – | – | – | – | – | CCC(C)CN1CCc2c(c([N+](=O)[O-])cc3[nH]c(=O)c(=O)[nH]c23)C1 (configuration not stated) | –
42 | 1.1 µM | 6.4 µM | – | > 10 µM | – | – | – | – | – | CCCN1CCc2c(c(Br)cc3nc(O)c(O)nc23)C1 | –
43 | 0.74 µM | 6.4 µM | – | 0.62 µM | – | – | – | – | – | CCN1CCc2c(Br)cc3[nH]c(=O)c(=O)[nH]c3c2C1 | –
44 | 0.54 µM | 0.49 µM | 26 µM | 5 µM | 26 µM | 14 µM | 25 µM | 14 µM | 25 µM | CCN1CCc2c(c([N+](=O)[O-])cc3nc(O)c(O)nc23)C1 | –
45 | 0.28 µM | 0.85 µM | – | 0.93 µM | – | 1.6 µM | 15 µM | 1.6 µM | 15 µM | CCC(C)N1CCc2c([N+](=O)[O-])cc3[nH]c(=O)c(=O)[nH]c3c2C1 (configuration not stated) | –
46 | 0.28 µM | 0.28 µM | 11 µM | 1.3 µM | 11 µM | – | 8 µM | – | 8 µM | CCC(C)CN1CCc2c([N+](=O)[O-])cc3[nH]c(=O)c(=O)[nH]c3c2C1 (configuration not stated) | –
47 | 0.2 µM | – | – | – | – | – | – | – | – | O=c1[nH]c2cc(-n3ccnc3)c([N+](=O)[O-])cc2[nH]c1=O [YM-90K] | –
48 | 0.166 µM | 0.52 µM | 7 µM | 1.4 µM | 7 µM | 0.7 µM | 6 µM | 0.7 µM | 6 µM | CCN1CCc2c([N+](=O)[O-])cc3[nH]c(=O)c(=O)[nH]c3c2C1 | –
49 | 0.153 µM | 0.29 µM | 7 µM | 0.93 µM | 7 µM | 1.5 µM | 6 µM | 1.5 µM | 6 µM | CC(C)N1CCc2c([N+](=O)[O-])cc3[nH]c(=O)c(=O)[nH]c3c2C1 | –
50 | 0.11 µM | 1.18 µM | 7 µM | 0.86 µM | 7 µM | – | 5 µM | – | 5 µM | CC(C)CCN1CCc2c([N+](=O)[O-])cc3[nH]c(=O)c(=O)[nH]c3c2C1 | –
